What is called IC50 is the midpoint of a concentration-inhibition curve. Broadly, the Papp A→B is how fast a substance crosses the layer from the apical side. Read a high Papp A→B as fast passage. The Papp B→A is how fast a substance crosses the layer from the basolateral side. In general, efflux ratio refers to a quotient of directional permeabilities that is used to spot active efflux.

One series concerns HBV. It is filed as cell-based, Hepatitis B virus. Particulars: HepG2-NTCP cells. As to the method:
HepG2 cells are representative cells that have immortalized human liver cells, and HepG2-NTCP cells refer to cells that overexpress sodium-taurocholate cotransporting polypeptide (NTCP). HepG2-NTCP cells are representative cells used to confirm the effect of inhibiting HBV host invasion.
HepG2-NTCP cells were grown in DMEM medium containing 10% FBS, penicillin (100 U), and streptomycin (0.1 mg/mL) at 37° C. with […]. […] The HepG2-NTCP cells were incubated with cyclic peptides in 12-well plates for 2 hours. Afterwards, the cells were infected by treating HBV particles (2×10^6 virus/mL) and cyclic peptide together and cultured for 3 hours. After removing the medium containing the virus, the cells were cultured for 16 hours. After the cells were treated with cyclic peptide, intracellular HBV DNA was extracted, purified, and quantified using a gene amplification test. To isolate HBV DNA from host cells, cells were lysed with cell lysis buffer (50 mM Tris-HCl, pH 7.5, 1 mM EDTA, 1% NP40) for 10 minutes on ice. […]. Micrococcal nuclease was inactivated by adding EGTA to a final concentration of […]. Afterwards, intracellular DNA of HBV was extracted using the G-SPIN™ set. […]
In vitro HBV entry inhibition assay based on quantification of intracellular DNA of HBV was performed. […]
The IC50 values are expressed as mean±SD. […]

Series [1] can be described thus: Caco-2 permeability assay. Particulars: human.
Description: Caco-2 permeability assay was performed in triplicate. A 10 μM sample was dissolved in 1% (v/v) DMSO/HBSS solution, and 100 μM verapamil in Hank's Balanced Salt Solution (HBSS) buffer was used as a P-glycoprotein inhibitor. Inserts with Caco-2 cells were pre-incubated with verapamil for 30 min at 37° C., and then incubated for 2 hours at 37° C. without shaking. Efflux ratio was calculated as A to B permeability/B to A permeability. Aliquots (20 μL) were collected at each time point (0.5, 1, 1.5, and 2 hours). Experiments were performed in duplicate.

As to Cyclosporine A [CsA], the “HBV inhibition (%)” value in the series with HBV (1 μM, intracellular HBV DNA, n=3) was found to be 83 ± 8%. In the series with HBV (mean±SD, read-out: In vitro HBV entry inhibition (IC50)), the IC50 came to 0.4 ± 0.03 µM.

As for `CN(C)C(=O)C(CCN1CCC(O)(c2ccc(Cl)cc2)CC1)(c1ccccc1)c1ccccc1` [loperamide], in series [1] (Caco-2), the apical-to-basolateral permeability (Papp A→B) at 2 h, 10 μM came out at 29 ± 20 nm/s; the basolateral-to-apical permeability (Papp B→A) at 2 h, 10 μM came to 275 ± 16 nm/s; the efflux ratio at 2 h, 10 μM came to 10. Besides, the recovery at 2 h, 10 μM in series [1] (Caco-2, A to B % recovery, A to B) was found to be 88 ± 6%. In series [1] (Caco-2, A to B with verapamil % recovery, A to B, 100 μM verapamil), the recovery at 2 h, 10 μM worked out at 78 ± 1%. The recovery at 2 h, 10 μM in series [1] (Caco-2, B to A % recovery, B to A) stood at 85 ± 1%.
